Experimental data taken from patent US6337327B1, “Pharmaceutical compositions comprising an aldose reductase inhibitor and an ace inhibitor” (Zeneca Limited, priority 1997, dated 2002).

System: rats rendered diabetic by streptozotocin (sciatic nerve branch to tibialis anterior muscle)
Assay: Motor nerve conduction velocity in streptozotocin-diabetic rats
Assay type: in vivo, Male Sprague-Dawley rats
Details: lisinopril 0.3 mg/kg/day; for Nerve conduction velocity (mean±SEM): diabetic rats, 6 weeks untreated diabetes then 2 weeks treatment in the drinking water, ZD5522 0.25 mg/kg/day, or both, nondiabetic control 64.4±0.5, untreated diabetic 50.9±0.5; for increase in conduction velocity: single-agent treatment for 2 weeks vs untreated diabetic rats, ZD5522 0.25 mg/kg/day
Procedure: Male Sprague-Dawley rats, 19 weeks old at the start of the study, were divided into non-diabetic animals (normal control group) and animals rendered diabetic by intraperitoneal administration of streptozotocin, (40-45 mg/kg, freshly dissolved in sterile saline). Diabetes was verified 24 hours later by estimating hyperglycemia and glucosuria (Visidex II and Diastix; Ames, Slough, UK). Diabetic rats were tested weekly and weighed daily. […] Samples were taken from the tail vein or carotid artery after final experiments for plasma glucose determination (GOD-Perid method; Boehringer Mannheim, Mannheim, Germany). After 6 weeks of untreated diabetes, groups of rats were treated for a further 2 weeks with lisinopril (0.3 mg/kg/day) or the aldose reductase inhibitor, ZD5522 (0.25 mg/kg/day) or a combination of the two drugs, dissolved in the drinking water.
At the end of the treatment period, rats were anesthetized with thiobutabarbitone by intraperitoneal injection (50-100 mg/kg). The trachea was cannulated for artificial ventilation and a cartoid cannula was used to monitor mean systemic blood pressure. Motor nerve conduction velocity was measured (as previously described by Cameron et al, Diabetologia, 1993, Vol. 36, pages 299-304) between sciatic notch and knee in the nerve branch to tibialis anterior muscle, which is representative of the whole sciatic nerve in terms of susceptibility to diabetes and treatment effects.

SMILES | Nerve conduction velocity (mean±SEM) [m/s] | increase in conduction velocity [%]
Cc1ccccc1CC(=O)Nc1cc(C)c(S(=O)(=O)C[N+](=O)[O-])c(C)c1 [ZD5522, 3′,5′-dimethyl-4′-nitromethylsulfonyl-2-(2-tolyl)acetanilide] | 53.7±0.3 | ~20
NCCCC[C@H](N[C@@H](CCc1ccccc1)C(=O)O)C(=O)N1CCC[C@H]1C(=O)O [lisinopril] | 53.9±0.6 | ~20
